This is an account of results in paper PMC2361176, “Inhibitory effects of retinoic acid metabolism blocking agents (RAMBAs) on the growth of human prostate cancer cells and LNCaP prostate tumour xenografts in SCID mice” (British Journal of Cancer, 2006).

“Also recorded” adds a separate entry of the source.

One series relates to LNCaP cells. The series can be described thus: WST-1 cell viability / LNCaP cell growth inhibition assay. It is filed as cell-based. As to conditions: Homo sapiens, 144 h, 6 days, read-out: Cell growth inhibition, agents alone, IC50. The method, then: To measure cell viability, 24-well plates were coated with a 0.05% poly-L-lysine solution for 30 min. The wells were then washed with sterilised dH2O. LNCaP cells (1 × 10^4) were seeded in the plates and maintained in RPMI 1640 medium (Gibco-Invitrogen, Carlsbad, CA, USA). The cells were allowed to attach for 36 h. After attachment, fresh media was added and the cells were treated with a concentration range of either ATRA or each of the RAMBAs for 6 days. The media was changed every 3 days. On the day the assay was performed, the media was removed and 1 ml of a stock solution of WST-1 (4-[3-(4-iodophenyl)-2-(4-nitrophenyl)-2H-5-tetrazolio]-1,3-benzene disulfonate) cell proliferation reagent (Boehringer Mannheim, Indianapolis, IN, USA), diluted 1 : 10 in RPMI 1640 medium (without FBS), was added to each well. The plates were incubated at 37°C for 3 h. The media was then removed and 500 μl of DMSO was added and agitated vigorously for 5 min. The slightly red tetrazolium salt WST-1 is reduced to a dark red, water-soluble formazan product by mitochondrial dehydrogenase from living cells, which gives absorbance at a wavelength of 450 nm.
In general terms: Formazan colour is commonly taken as a measure of viable cells.

The next series has as its system cytokeratin 8/18. The series can be described thus: Differentiation assay (Western-blot analysis of cytokeratins 8/18). It is filed as cell-based, human. As to conditions: LNCaP cells, 6 days; for cytokeratin 8/18 expression, fold over control: 1 μM agent alone; for cytokeratin 8/18 expression, fold over control / cytokeratin 8/18 expression, fold over control, combination with ATRA: control 1±0.07; for expression of cytokeratin 8/18 (concentration dependence): various concentrations; for cytokeratin 8/18 expression, fold over control, combination with ATRA: 1 μM RAMBA and 1 μM ATRA. The method, then:
LNCaP cells were scraped with 1.5 ml of PBS. The cells were collected by centrifugation, resuspended in ice-cold cell lysis buffer (0.1 M Tris-HCl, 0.5% Triton X-100, and protease inhibitor cocktail (Boehringer, Indianapolis, IN, USA)), and sonicated. The homogenates were incubated on ice for 30 min, subjected to centrifugation at 13 000 × g for 30 min, and the supernatants were separated and stored at −80°C until use. Protein concentrations were determined by the Bradford method using a Bio-Rad kit (Hercules, CA, USA). A measure of 50 μg of cell lysate was subjected to 10% sodium dodecyl sulfate-polyacrylamide gel electrophoresis (SDS–PAGE) using the Mini-PROTEAN3 electrophoresis module assembly (Bio-Rad, Hercules, CA, USA) at 60 V at room temperature. The separated lysates on 10% SDS–PAGE gel were transferred onto Hybond ECL nitrocellulose membrane (Amersham, Arlington Heights, IL, USA) overnight at 20 V at 4°C. Western-blot analysis was performed on the nitrocellulose membrane. The membrane was blocked for 1 h in 10% nonfat dried milk and PBS containing 0.5% Tween 20 (PBS-T) at room temperature. Following washing in PBS-T, the membrane was incubated with mouse monoclonal IgG antibody to cytokeratin 8/18 or β-actin (Santa Cruz Biotechnology, Santa Cruz, CA, USA and Oncogene Research Products, Boston, MA, USA, respectively) dissolved in 10% nonfat dried milk (1 : 5000 or 1 : 10 000), respectively) for l h at room temperature. Following washing, the membrane was incubated with horseradish peroxidase-linked anti-mouse IgG antibody (Amersham, Arlington Heights, IL, USA and Oncogene Research Products, Boston, MA, USA, respectively) dissolved in 10% nonfat dried milk (1 : 1000) for 1 h at room temperature. The membrane was incubated in 4 ml ECL Western Blotting Analysis System (Amersham, Arlington Heights, IL, USA) for 1 min at room temperature. The membrane was resolved on chemiluminescence film (Amersham Hyperfilm High Performance chemiluminescence film, Arlington Heights, IL, USA) and the film was developed using an X-ray developer (M35A X-OMAT Processor, Eastman Kodak Company, Rochester, NY, USA). The intensity of the bands on film was analysed using ImageQuant 5.0 software (Amersham, Arlington Heights, IL, USA). The band intensity corresponds to the level of protein expression of cytokeratin 8/18, which is shown to be expressed in differentiated cells of epithelial origin ([Peehl et al, 1993]; [Hsieh et al, 1995]).

The test system of the next series is Bad. The series is described as follows: Western-blot analysis of Bad in LNCaP cells. It is filed as cell-based, human. The note with it: 5 and 10 μM, P<0.05. The method, then: The Western-blot protocol described for cytokeratins 8/18 was followed with some exceptions. Cell lysates (50 μg) were separated on a 15% SDS–PAGE gel. All washing was performed using TBS containing 1% Tween 20 (TBS-T). Blocking was performed using 5% milk in TBS-T. Incubations were performed using rabbit monoclonal IgG antibody to Bad and Bcl-2 (1 : 1000), as well as horseradish peroxidase-linked anti-rabbit IgG antibodies (1 : 2000) (Cell Signaling Technology, Beverly, MA, USA).

The nature of series [1]: Tolerability and body weight in the LNCaP xenograft study. As to conditions: 0.033 mmol kg−1 once daily. The class given is in vivo. The method, then: All animal studies were performed according to the guidelines and approval of the Animal Care Committee of the University of Maryland School of Medicine, and were consistent with United Kingdom Coordinating Committee on Cancer Research guidelines for the welfare of animals in experimental neoplasia. The procedure was modified from [Grigoryev et al (1999)]. Briefly, LNCaP cells were trypsinised, counted, and suspended in Matrigel (2 × 10^7 cells ml^−1) (Fisher Scientific International, Inc., Hampton, NH, USA). Male SCID mice of 4–6 weeks of age were obtained from the National Cancer Institute (Frederick, MD, USA). Each mouse was inoculated s.c. with 0.1 ml of the cell suspension at two sites in the flank. The size of the tumours was determined by measuring the tumour volumes using calipers. Tumour volumes were calculated using the formula V=4/3 × π × r1^2 × r2(r1<r2). The tumours were allowed to develop to approximately 100 mm^3 before treatment. […] Tumour volumes were measured twice weekly and weights of animals were taken weekly after the initiation of treatment. The mice were subjected to 6 weeks of treatment. The mice were then killed and the tumours were excised, weighed, and stored at −80°C until analysis. Additionally, the plasma was collected with 50 IU of heparin and stored at −80°C until analysis.

What is called IC50 is the midpoint of a concentration-inhibition curve. On to `CC1=C(/C=C/C(C)=C/C=C/C(C)=C/C(=O)O)C(C)(C)CCC1` [ATRA, all-trans-retinoic acid, reference compound], for which the IC50 in the series on LNCaP cells was determined as 4.3 µM. Moreover, in the series on cytokeratin 8/18, the “cytokeratin 8/18 expression, fold over control” value came to 1.38 fold. The “cytokeratin 8/18 expression compared to control” value with cytokeratin 8/18 (5 and 10 μM, P<0.05, data not shown) is recorded as “significant increase”. For the same compound, the “expression of cytokeratin 8/18 (concentration dependence)” value (from here on “expression … (concentration dependence)”) in the series on cytokeratin 8/18 (data not shown) is “concentration-dependent increase”. The “Bad expression compared with control” value in the series with Bad is reported as “significant increase”. In addition, the “reduction of body weights compared to control” value in series [1] (data not shown) is around 25%.

Consider `CC1=C(/C=C/C(C)=C/C=C/C(C)=C/C(=O)O)C(C)(C)CCC1n1ccnc1` (centres unmarked) [VN/14-1], for which the IC50 with LNCaP cells came out at 10 µM. Further, in the series on cytokeratin 8/18, the “cytokeratin 8/18 expression, fold over control, combination with ATRA” value (from here on “cytokeratin 8/18 expression, fold … with ATRA”) was 1.59 fold and the “cytokeratin 8/18 expression, fold over control” value is reported as 1.18 fold. In addition, the “expression … (concentration dependence)” value in the series with cytokeratin 8/18 (data not shown) was “concentration-dependent increase”.

For the compound `CC1=C(/C=C/C(C)=C/C=C/C(C)=C/C(=O)n2ccnc2)C(C)(C)CCC1n1ccnc1` (centres unmarked) [VN/50-1], the IC50 with LNCaP cells stood at 6 µM. In addition, in the series on cytokeratin 8/18, the “cytokeratin 8/18 expression, fold … with ATRA” value turned out to be 1.51 fold and the “cytokeratin 8/18 expression, fold over control” value is given as 1.23 fold. Besides, in the series on cytokeratin 8/18 (data not shown), the “expression … (concentration dependence)” value is “concentration-dependent increase”. The “toxicity to the mice” value in series [1] is on record as “very toxic; also recorded: toxic”.

As for `CC1=C(/C=C/C(C)=C/C=C/C(C)=C/C(=O)Nc2ccc(O)cc2)C(C)(C)CCC1n1ccnc1` (centres unmarked) [VN/66-1], in the series on LNCaP cells, the IC50 amounted to 4.5 µM. In the series on cytokeratin 8/18, the “cytokeratin 8/18 expression, fold … with ATRA” value came out at 1.48 fold and the “cytokeratin 8/18 expression, fold over control” value is reported as 1.28 fold. Also, the “expression … (concentration dependence)” value in the series with cytokeratin 8/18 (data not shown) is on record as “concentration-dependent increase”.

For `CC1=C(/C=C/C(C)=C/C=C/C(C)=C\C(=O)Nc2ccc(O)cc2)C(C)(C)CCC1n1ccnc1` (centres unmarked) [VN/69-1], the IC50 with LNCaP cells stood at 5 µM. In the series with cytokeratin 8/18, the “cytokeratin 8/18 expression, fold … with ATRA” value is 1.32 fold and the “cytokeratin 8/18 expression, fold over control” value was found to be 1.19 fold. Moreover, in the series on cytokeratin 8/18 (data not shown), the “expression … (concentration dependence)” value is recorded as “concentration-dependent increase”.
